Nine compounds from BindingDB's records for patent US10123984 (Theravance Biopharma R&D Ip, 2018) can be followed below.

The target in this assay is Neprilysin (Homo sapiens, UniProt P08473). As to the kind of experiment: Enzyme NEP Inhibition Assay.
Description: The assays were performed in 384-well white opaque plates at 37° C. using the fluorogenic peptide substrates at a concentration of 10 μM in Assay Buffer (NEP: 50 mM HEPES, pH 7.5, 100 mM NaCl, 0.01% polyethylene glycol sorbitan monolaurate (Tween-20), 10 μM ZnSO4; ACE: 50 mM HEPES, pH 7.5, 100 mM NaCl, 0.01% Tween-20, 1 μM ZnSO4). […] Test compounds were added to the enzymes and incubated for 30 minute at 37° C. prior to initiating the reaction by the addition of substrate.
For `C[C@H](CC(Cc1ccc(-c2ccccc2)cc1)NC(=O)CC(=O)O)C(=O)O` (some centres undefined) [US10123984, Compound 21g], the 50% inhibitory concentration (IC50) turned out to be 92 nM.

In the case of `O=C(O)C(=O)N[C@H](Cc1ccc(-c2cccc(Cl)c2)cc1)C[C@@H](O)C(=O)O` [US10123984, Example 2A], the inhibitory constant (Ki) is < 1 nM.

Compound `C[C@H](C[C@@H](Cc1ccc(-c2ccccc2)cc1)NC(=O)CCCC(=O)O)C(=O)O` [US10123984, Compound 21e] returned an IC50 of 90 nM.

With `CC(C)COC(=O)C(=O)N[C@H](Cc1ccc(-c2cccc(Cl)c2)cc1)C[C@@H](O)C(=O)O` [US10123984, Example 2H], the Ki is < 1 nM.

Take `O=C(N[C@H](Cc1ccc(-c2cccc(Cl)c2)cc1)C[C@@H](O)C(=O)O)C(=O)OCCOc1ccccc1` [US10123984, Example 2U]: the inhibition constant Ki was < 1 nM.

Take `COCCOC(=O)C(=O)N[C@H](Cc1ccc(-c2cccc(Cl)c2)cc1)C[C@@H](O)C(=O)O` [US10123984, Example 2T]: the Ki is < 1 nM.

Consider `CCOC(=O)C(=O)N[C@H](Cc1ccc(-c2cccc(Cl)c2)cc1)C[C@@H](O)C(=O)O` [US10123984, Example 2F], for which the Ki was < 1 nM.

In turn, `C[C@H](C[C@@H](Cc1ccc(-c2ccccc2)cc1)NC(=O)CCCCC(=O)O)C(=O)O` [US10123984, Compound 21f] displayed an IC50 of 324 nM.

For the compound `CCOCCCOC(=O)C(=O)N[C@H](Cc1ccc(-c2cccc(Cl)c2)cc1)C[C@@H](O)C(=O)O` [US10123984, Example 2V], the Ki is < 1 nM.
